The text below walks through data of US20160175306A1, “COMBINATION OF A IMIDAZOPYRIDAZINE DERIVATIVE AND A MITOTIC AGENT FOR THE TREATMENT OF CANCER” (BAYER PHARMA AKTIENGESELLSCHAFT, priority 2013, published 2016).

For one data set, the target named is T1, human kinase Mps-1 (Homo sapiens, UniProt P33981).
T1 construct: N-terminally GST-tagged human full length recombinant Mps-1 kinase; purchased Invitrogen, Karslruhe, Germany PV4071
T1 sequence (P33981 1-857): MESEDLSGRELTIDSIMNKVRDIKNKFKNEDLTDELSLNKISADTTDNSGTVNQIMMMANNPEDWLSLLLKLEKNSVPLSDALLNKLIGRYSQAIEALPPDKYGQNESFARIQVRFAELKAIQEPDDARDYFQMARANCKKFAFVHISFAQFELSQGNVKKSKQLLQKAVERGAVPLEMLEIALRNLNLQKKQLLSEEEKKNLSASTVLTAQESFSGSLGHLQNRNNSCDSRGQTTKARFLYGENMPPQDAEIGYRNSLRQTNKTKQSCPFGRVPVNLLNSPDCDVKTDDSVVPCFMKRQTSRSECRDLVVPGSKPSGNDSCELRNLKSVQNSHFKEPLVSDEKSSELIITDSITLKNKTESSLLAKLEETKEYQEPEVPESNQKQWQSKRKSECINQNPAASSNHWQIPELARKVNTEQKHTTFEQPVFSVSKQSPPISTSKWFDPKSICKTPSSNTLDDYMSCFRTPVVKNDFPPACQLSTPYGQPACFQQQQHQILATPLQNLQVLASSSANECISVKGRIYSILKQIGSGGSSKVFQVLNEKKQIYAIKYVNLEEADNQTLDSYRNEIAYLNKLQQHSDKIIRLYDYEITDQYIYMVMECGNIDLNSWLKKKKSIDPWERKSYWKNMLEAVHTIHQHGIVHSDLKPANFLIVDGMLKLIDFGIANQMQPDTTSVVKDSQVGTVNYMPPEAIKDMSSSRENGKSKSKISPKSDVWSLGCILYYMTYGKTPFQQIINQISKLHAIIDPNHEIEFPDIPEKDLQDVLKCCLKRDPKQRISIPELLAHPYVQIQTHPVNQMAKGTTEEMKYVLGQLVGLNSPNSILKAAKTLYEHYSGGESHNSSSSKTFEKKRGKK
Briefly: Mps-1 Kinase Assay (TR-FRET). It counts as biochemical. As to conditions: 10 μM ATP. As for the experimental part:
The human kinase Mps-1 phosphorylates a biotinylated substrate peptide. Detection of the phosphorylated product is achieved by time-resolved fluorescence resonance energy transfer (TR-FRET) from Europium-labelled anti-phospho-Serine/Threonine antibody as donor to streptavidin Labelled with cross-linked allophycocyanin (SA-XLent) as acceptor. Compounds are tested for their inhibition of the kinase activity.
N-terminally GST-tagged human full length recombinant Mps-1 kinase (purchased from Invitrogen, Karslruhe, Germany, cat. no PV4071) was used. As substrate for the kinase reaction a biotinylated peptide of the amino-acid sequence […] (C-terminus in amide form, purchased from Biosynthan GmbH, Berlin) was used.
The concentration of Mps-1 in the assay was adjusted to the activity of the enzyme lot and was chosen appropriate to have the assay in the linear range, typical enzyme concentrations were in the range of about 1 nM (final conc. in the 5 μl assay volume).
The resulting mixture was incubated 1 h at 22° C. to allow the binding of the phosphorylated peptide to the anti-phospho(Ser/Thr)-Europium-antibody. Subsequently the amount of phosphorylated substrate was evaluated by measurement of the resonance energy transfer from the Europium-labelled anti-phospho(Ser/Thr) antibody to the Streptavidin-XLent.

The next data set deals with rat hepatocytes. The data set can be described thus: In vitro metabolic stability in rat hepatocytes. It counts as in vitro ADME. The following applies: 1 μM test compound, calculated from half-life. The procedure:
Investigation of In Vitro Metabolic Stability in Rat Hepatocytes (Including Calculation of Hepatic In Vivo Blood Clearance (CL))
Hepatocytes from Han Wistar rats were isolated via a 2-step perfusion method. After perfusion, the liver was carefully removed from the rat: the liver capsule was opened and the hepatocytes were gently shaken out into a Petri dish with ice-cold WME. The resulting cell suspension was filtered through sterile gaze in 50 ml falcon tubes and centrifuged at 50×g for 3 min at room temperature.
The cell pellet was resuspended in 30 ml WME and centrifuged through a Percoll® gradient for 2 times at 100×g. The hepatocytes were washed again with Williams' medium E (WME) and resuspended in medium containing 5% FCS. Cell viability was determined by trypan blue exclusion.
For the metabolic stability assay liver cells were distributed in WME containing 5% FCS to glass vials at a density of 1.0×10^6 vital cells/m. The test compound was added to a final concentration of 1 μM. During incubation, the hepatocyte suspensions were continuously shaken and aliquots were taken at 2, 8, 16, 30, 45 and 90 min, to which equal volumes of cold methanol were immediately added. Samples were frozen at −20° C. over night, after subsequently centrifuged for 15 minutes at 3000 rpm and the supernatant was analyzed with an Agilent 1200 HPLC-system with LCMS/MS detection.
The half-life of a test compound was determined from the concentration-time plot. From the half-life the intrinsic clearances were calculated. Together with the additional parameters liver blood flow, amount of liver cells in vivo and in vitro. The hepatic in vivo blood clearance (CL) and the maximal oral bioavailability (Fmax) was calculated. The following parameter values were used: Liver blood flow—4.2 L/h/kg rat; specific liver weight—32 g/kg rat body weight; liver cells in vivo—1.1×10^8 cells/g liver, liver cells in vitro—0.5×10^6/ml.

For the molecule `Cc1cc(-c2cnc3c(NCCC(F)(F)F)cc(C(O)c4cc(F)ccc4F)nn23)ccc1C(=O)NC1CC1` (racemic) [Compound A11, (RS)—N-Cyclopropyl-4-{6-[(2,5-difluorophenyl)(hydroxy)methyl]-8-[(3,3,3-trifluoropropyl)amino]imidazo[1,2-b]pyridazin-3-yl}-2-methylbenzamide], the IC50 against human kinase Mps-1 was determined as 0.3 nM. Moreover, in the data set with rat hepatocytes, the “Fmax (maximal oral bioavailability)” value is given as 45%.

In the case of `COc1ccc(C(F)(F)c2cc(NCCC(F)(F)F)c3ncc(-c4ccc(C(=O)NC5CC5)c(C)c4)n3n2)cc1F` [Compound A2, N-Cyclopropyl-4-{6-[difluoro(3-fluoro-4-methoxyphenyl)methyl]-8-[(3,3,3-trifluoropropyl)amino]imidazo[1,2-b]pyridazin-3-yl}-2-methylbenzamide], the IC50 against human kinase Mps-1 was 0.6 nM. Besides, the “Fmax (maximal oral bioavailability)” value with rat hepatocytes was 64%.

The molecule `COc1cccc(C(=O)c2cc(NCCC(F)(F)F)c3ncc(-c4ccc(C(=O)NC5CC5)c(C)c4)n3n2)c1` [Compound A7, N-Cyclopropyl-4-{6-(3-methoxybenzoyl)-8-[(3,3,3-trifluoropropyl)amino]imidazo[1,2-b]pyridazin-3-yl}-2-methylbenzamide] displayed an IC50 on human kinase Mps-1 of 0.5 nM. Also, the “Fmax (maximal oral bioavailability)” value with rat hepatocytes is 26%.

In the case of `C=C(c1cccc(OC)c1)c1cc(NCCC(F)(F)F)c2ncc(-c3ccc(C(=O)NC4CC4)c(C)c3)n2n1` [Compound A8, N-Cyclopropyl-4-{6-[1-(3-methoxyphenyl)vinyl]-8-[(3,3,3-trifluoropropyl)amino]imidazo[1,2-b]pyridazin-3-yl}-2-methylbenzamide], the IC50 against human kinase Mps-1 came to 0.8 nM. Besides, the “Fmax (maximal oral bioavailability)” value in the data set with rat hepatocytes is on record as 57%.

On to `COc1ccc(C(=O)c2cc(NCCC(F)(F)F)c3ncc(-c4ccc(C(=O)NC5CC5)c(C)c4)n3n2)cc1` [Compound A9, N-Cyclopropyl-4-{6-(4-methoxybenzoyl)-8-[(3,3,3-trifluoropropyl)amino]imidazo[1,2-b]pyridazin-3-yl}-2-methylbenzamide], for which it took 1.2 nM to reach half-maximal inhibition against human kinase Mps-1 (IC50). In addition, the “Fmax (maximal oral bioavailability)” value in the data set on rat hepatocytes is 71%.

`C=C(c1ccc(OC)cc1)c1cc(NCCC(F)(F)F)c2ncc(-c3ccc(C(=O)NC4CC4)c(C)c3)n2n1` [Compound A10, N-Cyclopropyl-4-{6-[1-(4-methoxyphenyl)vinyl]-8-[(3,3,3-trifluoropropyl)amino]imidazo[1,2-b]pyridazin-3-yl}-2-methylbenzamide] yielded an IC50 against human kinase Mps-1 of 0.5 nM. In addition, the “Fmax (maximal oral bioavailability)” value in the data set with rat hepatocytes is listed as 48%.

Regarding `Cc1cc(-c2cnc3c(NCCC(F)(F)F)cc(C(=O)c4cc(F)ccc4F)nn23)ccc1C(=O)NC1CC1` [Compound A12, N-Cyclopropyl-4-{6-(2,5-difluorobenzoyl)-8-[(3,3,3-trifluoropropyl)amino]imidazo[1,2-b]pyridazin-3-yl}-2-methylbenzamide], inhibition on human kinase Mps-1 was half-maximal at 0.6 nM (IC50). Further, the “Fmax (maximal oral bioavailability)” value in the data set with rat hepatocytes is on record as 67%.

Regarding `Cc1cc(-c2cnc3c(NCCC(F)(F)F)cc(C(=O)c4cccc(F)c4F)nn23)ccc1C(=O)NC1CC1` [Compound A14, N-Cyclopropyl-4-{6-(2,3-difluorobenzoyl)-8-[(3,3,3-trifluoropropyl)amino]imidazo[1,2-b]pyridazin-3-yl}-2-methylbenzamide], the IC50 at human kinase Mps-1 is 0.6 nM. For the same molecule, the “Fmax (maximal oral bioavailability)” value in the data set with rat hepatocytes was 51%.

In turn, `C=C(c1cc(NCCC(F)(F)F)c2ncc(-c3ccc(C(=O)NC4CC4)c(C)c3)n2n1)c1cccc(F)c1F` [Compound A15, N-Cyclopropyl-4-{6-[1-(2,3-difluorophenyl)vinyl]-8-[(3,3,3-trifluoropropyl)amino]imidazo[1,2-b]pyridazin-3-yl}-2-methylbenzamide] had an IC50 against human kinase Mps-1 of 0.4 nM. In addition, the “Fmax (maximal oral bioavailability)” value in the data set with rat hepatocytes is listed as 53%.

`Cc1cc(-c2cnc3c(NCCC(F)(F)F)cc(C(F)(F)c4cccc(F)c4F)nn23)ccc1C(=O)NC1CC1` [Compound A18, N-Cyclopropyl-4-{6-[(2,3-difluorophenyl)(difluoro)methyl]-8-[(3,3,3-trifluoropropyl)amino]imidazo[1,2-b]pyridazin-3-yl}-2-methylbenzamide]: at human kinase Mps-1, the IC50 was found to be 1.5 nM. Moreover, the “Fmax (maximal oral bioavailability)” value in the data set with rat hepatocytes is given as 76%.

Take `C=C(c1cc(NCCC(F)(F)F)c2ncc(-c3ccc(C(=O)NC4CC4)c(C)c3)n2n1)c1cc(F)ccc1O` [Compound A22, N-cyclopropyl-4-{6-[1-(5-fluoro-2-hydroxyphenyl)ethenyl]-8-[(3,3,3-trifluoropropyl)amino]imidazo[1,2-b]pyridazin-3-yl}-2-methylbenzamide]: the IC50 on human kinase Mps-1 worked out at 0.4 nM. In the data set on rat hepatocytes, the “Fmax (maximal oral bioavailability)” value is on record as 28%.

Consider `C=C(c1cccc(F)c1)c1cc(NCCC(F)(F)F)c2ncc(-c3ccc(C(=O)NC4CC4)c(C)c3)n2n1` [Compound A24, N-cyclopropyl-4-{6-[1-(3-fluorophenyl)ethenyl]-8-[(3,3,3-trifluoropropyl)amino]imidazo[1,2-b]pyridazin-3-yl}-2-methylbenzamide], for which, at human kinase Mps-1, the IC50 is 0.3 nM. In addition, the “Fmax (maximal oral bioavailability)” value with rat hepatocytes is 48%.

Take `Cc1cc(-c2cnc3c(NCCC(F)(F)F)cc(C4(c5cccc(F)c5)CC4)nn23)ccc1C(=O)NC1CC1` [Compound A25, N-cyclopropyl-4-{6-[1-(3-fluorophenyl)cyclopropyl]-8-[(3,3,3-trifluoropropyl)amino]imidazo[1,2-b]pyridazin-3-yl}-2-methylbenzamide]: inhibition on human kinase Mps-1 was half-maximal at 0.9 nM (IC50). For the same molecule, the “Fmax (maximal oral bioavailability)” value in the data set on rat hepatocytes was 52%.
